Data as given in paper PMC10518717, “High-Throughput Screening and Proteomic Characterization of Compounds Targeting Myeloid-Derived Suppressor Cells” (Molecular & Cellular Proteomics : MCP, 2023).
Where two headings read alike, the source gives them in different places.

Legend:
[1] = tested on: NUP-MDSC; test: Secondary mouse MDSC screen (dose-dependent; IFNγ secretion and T cell proliferation); assay type: cell-based; conditions: for EC50: Mus musculus, NUP-MDSC/CD8+ T cell coculture; for activity in the NUP-MDSC assay (proliferation and INFγ secretion of mouse CD8+ T cells): dose-dependent confirmation screen
Experimental: Compound source plates (REMP-PP#180030) were pre-prepared by adding 500 nl compound solution (5 mmol/l starting concentration) and 11.5 μl Hepes (20 mmol/l) buffer to achieve a final ready to screen concentration of 0.2 mmol/l. Cocultured cell assay plates were prepared by dispensing 20 μl of differentiated MDSC cells (12,500 cells/cavity) and 20 μl of CD8+ T-cells with a MultidropCombi (12,500 cells/cavity). In the next step, 2 μl of pre-prepared compound solution was transferred via BC i5 to the cell plate followed by 3days incubation at 37 °C and 5% CO2. Afterward, the supernatant in cell plates were homogenized via orbital shaking at 2000 rpm for 20s and centrifugated with 1650 rpm for 30 s. On a BC i5 pipetting robot, 2 μl supernatant were transferred to a pre-filled (30 μl PBS) assay plate followed by centrifugation and addition of 8 μl IFNγ HTRF detection kit, followed by orbital mixing at 2000 rpm for 20s and an incubation step for 3 days at 37 °C and 5% CO2. Assay plate was analyzed on an PE Envision. Cell plates were centrifuged in parallel with 300g for 60 s and orbital mixed at 2000 rpm for 20 s followed by proliferation analysis via Sartorius IQue2. Effects were normalized against stimulator control mIL-2 and 0.2% dimethyl sulfoxide (DMSO) as neutral control. A hit was defined as a compound with >50% effect in at least one of the measured effects.
Compound source plates (REMP-PP#180030) for dose-dependent secondary screens were pre-prepared by adding […] compound solution (1.0E + 01 mmol/l, 3.2E + 00 mmol/l, 1.0E + 00 mmol/l, 3.2E-01 mmol/l, 1.0E-01 mmol/l, 3.2E-02 mmol/l, 1.0E-02 mmol/l, 3.2E-03 mmol/l, 1.0E-03 mmol/l, 3.2E-04 mmol/l; starting concentration) and 12 μl Hepes (20 mM) buffer to achieve a final ready to screen concentration of 4.0E-02 mmol/l, 1.3E-02 mmol/l, 4.0E-03 mmol/l, 1.3E-03 mmol/l, 4.0E-04 mmol/l, 1.3E-04 mmol/l, 4.0E-05 mmol/l, 1.3E-05 mmol/l, 4.0E-06 mmol/l, and 1.3E-06 mmol/l. All other steps are identical to the described workflow under “Primary mouse MDSC screen”.
After confirming the physiological and pharmacological suitability of the NUP-MDSC model, we developed a high-throughput screen for the identification of potential MDSC modulators (Fig. 4A and supplemental Fig. S3). To accomplish this, mouse NUP-MDSC were generated as described before, co-cultured with freshly isolated mouse CD8+ T cells, which were activated with anti-CD3/anti-CD28 antibodies, and subsequently treated with compounds or DMSO vehicle (supplemental Fig. S4A). After 72 h, T cell activity was assessed by recording T cell proliferation and IFN-γ secretion. […] Compounds were declared hits if reversing the suppression effect of NUP-MDSC on T cells with ≥50% in either readout resulting in 392 hit compounds (Fig. 4B). […]

[2] = tested on: A594 cells; test: CellROX-based detection of ROS levels; assay type: cell-based; conditions: 48 h treatment (compound 2 7.8 μM, N-acetyl-cysteine 300 μM), then 200 μM tert-butyl hydroperoxide 2 h; compared to compound 3 10 μM
Experimental: A594 cells were maintained in Fluorobrite DMEM (Thermo Fisher Scientific) supplemented with GlutaMAX (Thermo Fisher Scientific) and 10% fetal bovine serum (PAN Biotech). Cells were seeded onto a 24-well microplate (Ibidi) and treated with DMSO, 7.8 μM compound 2 (3x EC50), 10 μM compound 3, or 300 μM N-acetyl-cysteine for 48 h. After the treatment, cells were incubated with 200 μM tert-butyl hydroperoxide (Sigma) for 2 h to stimulate ROS production. Then, cells were stained with CellROX deep red (Thermo Fisher Scientific) following the manufacturer’s guidelines. CellROX deep red signal was measured on a Leica DMI 6000 B epifluorescent microscope with a Cy5 filter set. Mean signal intensity per cell was determined from >100 cells per condition from three independent treatments.
For the CellROX assay, three independent treatments were conducted. From each, the mean signal intensity per cell was determined for >100 cells per condition. The statistical significance was calculated by one-way ANOVA followed by a post hoc Tukey’s multiple comparisons test using GraphPad Prism (v.8.3.0).

| Structure (SMILES) | EC50 ([1]; Fig. 4D, read-out: T cell proliferation EC50) | EC50 ([1]; read-out: EC50, based on INFγ secretion of secondary mouse screen) | activity in the NUP-MDSC assay (proliferation and INFγ secretion of mouse CD8+ T cells) [1] | CellROX Deep Red fluorescence (amount of ROS in a cell) [2] |
| --- | --- | --- | --- | --- |
| CCOC(=O)c1nnn(-c2nn3nnnc3c3ccccc23)c1C [compound 2] | 6.5 µM | 2.6 µM | rescued the proliferation and INFγ secretion | decreased significantly |
| c1ccc2c(c1)c(-n1ccnc1)nn1nnnc21 [compound 3] |  |  | inactive |  |
